Patent publication US12384751B2, “Allosteric activators of the ALPHA1A-adrenergic receptor” (The Cleveland Clinic Foundation, priority 2019, dated 2025)
Entries after “also recorded” stand apart in the source; their conditions may differ.

Key:
α1B-AR [1] = target: T1, α1B-AR (Homo sapiens, UniProt P35368); assay: Competition binding with [125I]HEAT at α1B-AR
T1 construct: expressed in transfected cells; host or cells: Rat-1 fibroblast cells
T1 sequence (P35368 1-520): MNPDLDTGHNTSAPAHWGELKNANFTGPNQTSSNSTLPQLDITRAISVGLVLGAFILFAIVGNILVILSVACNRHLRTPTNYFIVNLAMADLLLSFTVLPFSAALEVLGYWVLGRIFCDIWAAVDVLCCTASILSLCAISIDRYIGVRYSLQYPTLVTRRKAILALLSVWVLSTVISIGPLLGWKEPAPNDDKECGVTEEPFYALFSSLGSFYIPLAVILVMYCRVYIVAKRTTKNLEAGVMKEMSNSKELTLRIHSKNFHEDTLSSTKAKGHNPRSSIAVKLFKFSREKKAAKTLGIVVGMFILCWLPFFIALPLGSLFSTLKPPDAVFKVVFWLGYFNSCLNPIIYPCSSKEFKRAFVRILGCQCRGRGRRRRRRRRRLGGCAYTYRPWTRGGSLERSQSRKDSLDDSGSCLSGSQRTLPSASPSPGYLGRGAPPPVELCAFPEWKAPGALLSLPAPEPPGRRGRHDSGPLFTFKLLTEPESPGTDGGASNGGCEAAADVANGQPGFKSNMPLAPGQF
Protocol: (§1) Competition binding assays: These compounds were characterized for their ligand binding properties at the α1-AR subtypes. The binding affinities of Compounds 1-10 were determined in a series of competition-binding experiments with the α1-AR-selective antagonist [^125I]HEAT as the radioligand. Assays were performed in duplicate in HEM buffer, in a total assay volume of 1000 μl. Radioligand binding assays are composed of 5 ug of membranes, harvested from Rat-1 fibroblast cells expressing only one of the alpha1-AR subtypes, HEM buffer containing GTP (composed of 20 mM HEPES, pH 7.4, 1.4 mM EGTA, 12.5 mM MgCl2, pH to 7.4), 0.5 mM GTP, 35-80 pM^125I-HEAT, and various doses of norepinephrine or epinephrine and incubated with shaking at 25° C. for 1-2 hours. The above conditions will convert all the conformations of the receptor into a single low affinity site. To show both high and low affinity sites of the receptor (typically seen with GPCR agonists), the GTP is removed from the binding buffer. Nonspecific binding was determined experimentally in the presence of 10^−4 M phentolamine. Unbound radioactivity was separated from membrane-bound radioactivity by filtration through Whatman GF/C filter paper. […] Bound radioactivity remaining on the filters was counted on an ICN gamma counter operating at 79.8% efficiency. Data are analyzed using Graphpad Prism.

Pharmacokinetics in mice = assay type: in vivo, mouse; details: as determined by PK
Protocol: Pharmacokinetics: Mice are dosed for each identified candidate compound via oral gavage and accessed for a three-arm PK study in C57BL/6 mice at 0, 15 min, 30 min, 1 hr, 3 hr, 6 hr, 12 hr, 24 hr, and 48 hrs. Three groups of […] (N=3 per time point) are administered a PO dose of the identified compound of interest and following completion of the PK study, terminal blood plasma samples and brain tissue samples are collected at the time points to determine in vivo BBB penetrance. Parameters tested can include absorption, bioavailability, volume distribution, metabolism, Cmax, tmax, concentration, elimination rate and half-life, and clearance.

α1B-AR [2] = target: T1, α1B-AR; assay: Effect of compound on binding affinity of norepinephrine at α1B-AR; details: 10^−5M
Protocol: as §1, with “Prism. […]” for “Prism.”

[3] = tested on: 3×TG Alzheimer's Disease (AD) mouse model; assay: Tone-induced fear conditioning in 3×TG AD mice; assay type: in vivo
Protocol: AD mice were first randomized and sorted into control or treatment groups. […] 14 AD mice from each treatment group received Compound 3 in the drinking water (2.611 mg/kg/bw) to deliver a daily dose near the peak potentiation of the cAMP response in the brain at 10^−8M based upon the PAM assay and pharmacokinetics. This was achieved by adding Compound 3 to the drinking water at 32 uM, assuming the mice drink 6 ml/day, with only 10% of bioavailable drug reaching the brain. The drug was administered in the drinking water for 10 months, starting at age 2 months, then subjected to either different cognitive behavioral tests or electrophysiology at age 12 months to maximize the manifestations of AD symptoms in these mice. Mice are maintained on the drug for the duration of the studies and blinded to the operator.

α2-ARs = assay: Radioligand binding at α2-ARs
Protocol: Characterization: Binding affinity. Using AR null stably-transfected cell lines that each express only one of the three individual α1-AR subtypes, compounds are characterized for their selectivity for the α1A-AR in radioligand binding studies. To be sure of no cross-reactivity, binding affinity against the α2-ARs and β-ARs are also measured. Details for such procedures are found generally at references 25-26, 94-98, all of which are herein incorporated by reference.

[4] = tested on: 3×TG Alzheimer's Disease (AD) mouse model; assay: Smart Cage locomotor activity in AD mice; assay type: in vivo; details: 48 hours
α1A-AR = target: T2, α1A-AR (Homo sapiens, UniProt P35348); assay: Effect of compound on binding affinity of norepinephrine, epinephrine or other ligands at α1A-AR; design: expressed in transfected cells; host or cells: Rat-1 fibroblast cells
T2 sequence (P35348 1-466): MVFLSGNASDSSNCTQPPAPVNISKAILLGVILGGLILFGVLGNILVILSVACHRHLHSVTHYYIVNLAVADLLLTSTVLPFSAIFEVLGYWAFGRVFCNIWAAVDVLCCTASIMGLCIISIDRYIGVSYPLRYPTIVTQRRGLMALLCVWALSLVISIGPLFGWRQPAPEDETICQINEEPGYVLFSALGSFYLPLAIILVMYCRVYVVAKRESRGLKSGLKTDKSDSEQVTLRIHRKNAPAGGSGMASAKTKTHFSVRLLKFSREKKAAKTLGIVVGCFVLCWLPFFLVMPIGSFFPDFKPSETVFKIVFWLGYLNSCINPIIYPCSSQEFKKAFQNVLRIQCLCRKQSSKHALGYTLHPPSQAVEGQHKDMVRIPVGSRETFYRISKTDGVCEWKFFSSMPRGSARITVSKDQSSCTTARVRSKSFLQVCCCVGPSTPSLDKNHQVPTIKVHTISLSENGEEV
Protocol: Competition binding assays: These compounds were characterized for their ligand binding properties at the α1-AR subtypes. The binding affinities of Compounds 1-10 were determined in a series of competition-binding experiments with the α1-AR-selective antagonist [^125I]HEAT as the radioligand. Assays were performed in duplicate in HEM buffer, in a total assay volume of 1000 μl. Radioligand binding assays are composed of 5 ug of membranes, harvested from Rat-1 fibroblast cells expressing only one of the alpha1-AR subtypes, HEM buffer containing GTP (composed of 20 mM HEPES, pH 7.4, 1.4 mM EGTA, 12.5 mM MgCl2, pH to 7.4), 0.5 mM GTP, 35-80 pM^125I-HEAT, and various doses of norepinephrine or epinephrine and incubated with shaking at 25° C. for 1-2 hours. The above conditions will convert all the conformations of the receptor into a single low affinity site. To show both high and low affinity sites of the receptor (typically seen with GPCR agonists), the GTP is removed from the binding buffer. Nonspecific binding was determined experimentally in the presence of 10^−4 M phentolamine. Unbound radioactivity was separated from membrane-bound radioactivity by filtration through Whatman GF/C filter paper. Filters are washed five times with 5 ml of cold HEM buffer containing 0.5 mMGTP (if added to the binding buffer but not if it was not added to the binding buffer). Bound radioactivity remaining on the filters was counted on an ICN gamma counter operating at 79.8% efficiency. Data are analyzed using Graphpad Prism.
To determine the effects of compounds 1-10 on the binding affinity of norepinephrine or epinephrine, the competition binding assay was repeated as above with one dose of each individual compound (i.e. 10^−5M) added to each concentration point. Data are normalized to the norepinephrine or epinephrine binding curve alone without the addition of the compound to measure its effect on binding.

## CC(C)Cc1c(OCC2=NCCN2)cccc1N(C)S(C)(=O)=O [Compound 3, N-[3-(4,5-Dihydro-1H-imidazol-2-ylmethoxy)-2-isobutyl-phenyl]-N-methyl-methanesulfonamide]
α1B-AR [1]
  specific binding at the α1B-AR: little, if any, specific binding; also recorded: no affinity
Pharmacokinetics in mice
  CMax time point: approx. 3 hr
α1B-AR [2]
  effect on affinity of norepinephrine at the α1B-AR: no effect; also recorded: does not increase the affinity of norepinephrine
[3]; female AD mice
  velocity after tone (freezing): slower movement speed
[3]; male AD mice
  active time after tone (freezing): less active time
α2-ARs
  interaction with α2-ARs: does not interact with high affinity
[4]
  locomotion assessed by amount of active time: little effect on locomotion
  locomotion assessed by velocity: little effect on locomotion
α1A-AR; 10^−5M (highest dose tested)
  effect on binding affinity of epinephrine at the α1A-AR: no effect
α1A-AR; fixed dose of compound, 10^−5M to 10^−9M
  effect on binding affinity of norepinephrine at the α1A-AR: increasing the affinity of norepinephrine in a dose-specific manner
